Assay results taken from patent US20160362408A1 (Bayer Pharma Aktiengesellschaft, priority 2013, published 2016).
Counter-ions that a name gives are not always drawn.

target: T1, recombinant guanylate cyclase reporter cell line (Rattus norvegicus, UniProt P19686+P20595); assay: Effect on a recombinant guanylate cyclase reporter cell line; format: cell-based; conditions: MEC = minimum effective concentration; in some cases mean values for individual determinations
T1 construct: expressed in transfected cells
T1 sequence (P19686 1-690): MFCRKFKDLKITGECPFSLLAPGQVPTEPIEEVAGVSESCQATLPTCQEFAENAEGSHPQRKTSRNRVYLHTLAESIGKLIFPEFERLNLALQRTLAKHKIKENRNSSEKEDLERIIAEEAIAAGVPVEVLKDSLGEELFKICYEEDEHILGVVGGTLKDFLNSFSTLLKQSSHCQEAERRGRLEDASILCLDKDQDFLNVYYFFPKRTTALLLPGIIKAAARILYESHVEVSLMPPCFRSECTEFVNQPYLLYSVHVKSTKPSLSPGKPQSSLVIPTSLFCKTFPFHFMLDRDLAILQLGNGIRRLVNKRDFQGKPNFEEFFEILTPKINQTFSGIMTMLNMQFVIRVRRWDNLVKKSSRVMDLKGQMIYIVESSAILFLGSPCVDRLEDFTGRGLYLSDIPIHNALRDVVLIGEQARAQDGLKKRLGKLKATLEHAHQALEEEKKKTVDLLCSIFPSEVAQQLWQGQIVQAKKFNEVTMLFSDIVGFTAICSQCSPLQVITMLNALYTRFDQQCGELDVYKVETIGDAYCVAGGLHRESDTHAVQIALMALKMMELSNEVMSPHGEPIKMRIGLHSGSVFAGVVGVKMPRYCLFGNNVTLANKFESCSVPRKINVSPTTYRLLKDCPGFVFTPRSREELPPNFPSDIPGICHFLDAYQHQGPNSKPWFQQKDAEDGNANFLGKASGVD
T1 sequence (P20595 1-619): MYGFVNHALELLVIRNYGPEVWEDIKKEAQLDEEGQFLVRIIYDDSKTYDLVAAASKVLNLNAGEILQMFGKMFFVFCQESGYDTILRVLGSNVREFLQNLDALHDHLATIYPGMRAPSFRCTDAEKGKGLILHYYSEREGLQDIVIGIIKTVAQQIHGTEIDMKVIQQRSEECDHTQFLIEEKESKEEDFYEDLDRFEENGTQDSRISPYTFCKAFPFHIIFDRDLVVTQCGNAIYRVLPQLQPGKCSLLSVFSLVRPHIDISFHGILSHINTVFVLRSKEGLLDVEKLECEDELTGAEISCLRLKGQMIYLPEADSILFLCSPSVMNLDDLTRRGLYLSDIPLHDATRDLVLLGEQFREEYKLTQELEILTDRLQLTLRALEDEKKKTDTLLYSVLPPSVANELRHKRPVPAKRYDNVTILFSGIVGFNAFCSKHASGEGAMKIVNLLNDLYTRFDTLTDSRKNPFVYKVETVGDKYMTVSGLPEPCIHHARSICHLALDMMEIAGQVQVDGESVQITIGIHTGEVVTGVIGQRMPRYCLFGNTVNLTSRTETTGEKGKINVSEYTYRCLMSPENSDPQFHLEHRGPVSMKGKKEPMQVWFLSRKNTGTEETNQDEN
Experimental: B-2. Effect on a Recombinant Guanylate Cyclase Reporter Cell Line
The cellular action of the compounds of the invention is determined using a recombinant guanylate cyclase reporter cell line, as described in F. Wunder et al., Anal. Biochem. 339, 104-112 (2005).
Representative MEC values (MEC=minimum effective concentration) for the compounds of the invention are shown in the table below (in some cases as mean values for individual determinations): […]

| Compound | MEC |
| --- | --- |
| Cc1nc2c(OCc3c(F)cccc3F)cccn2c1C(=O)Nc1nccc2ccccc12 [Example 59, 8-[(2,6-difluorobenzyl)oxy]-N-(isoquinolin-1-yl)-2-methylimidazo[1,2-a]pyridin-3-carboxamide trifluoroacetate] | 1.0 µM |
| Cc1nc2c(OCc3c(F)cccc3F)cccn2c1C(=O)Nc1ccnc2c(F)cccc12 [Example 78] | 1.0 µM |
| Cc1ccc2cccnc2c1NC(=O)c1c(C)nc2c(OCc3c(F)cccc3F)cccn12 [Example 65] | 1.0 µM |
| CC(=O)Nc1ccc(NC(=O)c2c(C)nc3c(OCc4c(F)cccc4F)cccn23)cc1C(F)(F)F [Example 18] | 0.3 µM |
| Cc1nc2c(OCc3c(F)cccc3F)cccn2c1C(=O)Nc1ccccc1F [Example 10] | 0.3 µM |
| Cc1cc(OCCC(C(F)(F)F)C(F)(F)F)c2nc(C)c(C(=O)Nc3c(C)n[nH]c3C(F)(F)F)n2c1 [Example 149, 2,6-dimethyl-N-[3-methyl-5-(trifluoromethyl)-1H-pyrazol-4-yl]-8-[4,4,4-trifluoro-3-(trifluoromethyl)butoxy]imidazo[1,2-a]pyridine-3-carboxamide] | 2.0 µM |
| Cc1nc2c(OCc3c(F)cccc3F)cccn2c1C(=O)Nc1cccc(C(C)O)c1 (stereo not shown) [Example 17] | 0.3 µM |
| Cc1nc2c(OCc3c(F)cccc3F)cccn2c1C(=O)Nc1c(-c2ccccc2)noc1C [Example 55, 8-[(2,6-Difluorobenzyl)oxy]-2-methyl-N-(5-methyl-3-phenyl-1,2-oxazol-4-yl)imidazo[1,2-a]pyridine-3-carboxamide] | 1.0 µM |
| CCn1nccc1NC(=O)c1c(C)nc2c(OCc3c(F)cccc3F)cccn12 [Example 20] | 1.0 µM |
| CCc1cc(NC(=O)c2c(C)nc3c(OCc4c(F)cccc4F)cccn23)ccn1 [Example 8] | 0.1 µM |
| Cc1n[nH]c(C)c1NC(=O)c1c(C)nc2c(OCc3c(F)cccc3F)cc(N3CCOCC3)cn12 [Example 51, 8-[(2,6-difluorobenzyl)oxy]-N-(3,5-dimethyl-1H-pyrazol-4-yl)-2-methyl-6-(morpholin-4-yl)imidazo[1,2-a]pyridine-3-carboxamide] | 1.0 µM |
| Cc1ccc2c(NC(=O)c3c(C)nc4c(OCc5c(F)cccc5F)cccn34)cccc2n1 [Example 64] | 0.2 µM |
| Cc1ccc2ccccc2c1NC(=O)c1c(C)nc2c(OCc3c(F)cccc3F)cccn12 [Example 66] | 0.1 µM |
| Cc1cc(OCc2c(F)cccc2F)c2nc(C)c(C(=O)Nc3c(C(F)(F)F)n[nH]c3C)n2c1 [Example 94] | 0.1 µM |
| Cc1n[nH]cc1NC(=O)c1c(C)nc2c(OCc3c(F)cccc3F)cccn12 [Example 3] | 0.3 µM |
| Cc1n[nH]c(C)c1NC(=O)c1c(C)nc2c(OCc3c(F)cccc3F)cc(Cl)cn12 [Example 41, 6-chloro-8-[(2,6-difluorobenzyl)oxy]-N-(3,5-dimethyl-1H-pyrazol-4-yl)-2-methylimidazo[1,2-a]pyridine-3-carboxamide] | 0.1 µM |
| Cc1nc2c(OCc3c(F)cccc3F)cccn2c1C(=O)Nc1ccnn1C(C)C [Example 21] | 1.0 µM |
| Cc1nc2c(OCc3c(F)cccc3F)cc(Cl)cn2c1C(=O)Nc1cnn2ccccc12 [Example 82] | 0.3 µM |
| 8-[(2,6-difluorobenzyl)oxy]-N-[1-(2- hydroxyethyl)-5-methyl-3-(trifluoromethyl)-1H- pyrazol-4-yl]-2,6-dimethylimidazo[1,2-a]pyridine- 3-carboxamide [Example 118] | 0.1 µM |
| CNC(=O)c1c(NC(=O)c2c(C)nc3c(OCc4c(F)cccc4F)cccn23)cnn1C [Example 36, 8-[(2,6-difluorobenzyl)oxy]-2-methyl-N-[1-methyl-5-(methylcarbamoyl)-1H-pyrazol-4-yl]imidazo[1,2-a]pyridine-3-carboxamide] | 1.0 µM |
| Cc1cccc(NC(=O)c2c(C)nc3c(OCc4c(F)cccc4F)cccn23)n1 [Example 5] | 0.3 µM |

Further lines, results first:

| MEC | Compound |
| --- | --- |
| 3.0 µM | Cc1cnc(NC(=O)c2c(C)nc3c(OCc4c(F)cccc4F)cccn23)s1 [Example 146, 8-[(2,6-difluorobenzyl)oxy]-2-methyl-N-(5-methyl-1,3-thiazol-2-yl)imidazo[1,2-a]pyridine-3-carboxamide] |
| 3.0 µM | Cc1cc(OCC2CC(F)(F)C2)c2nc(C)c(C(=O)Nc3c(C)n[nH]c3C(F)(F)F)n2c1 [Example 151, 8-[(3,3-Difluorocyclobutyl)methoxy]-2,6-dimethyl-N-[3-methyl-5-(trifluoromethyl)-1H-pyrazol-4-yl]imidazo[1,2-a]pyridine-3-carboxamide] |
| 3.0 µM | Cc1nc2c(OCc3c(F)cccc3F)cccn2c1C(=O)Nc1cnn(CCS(C)(=O)=O)c1 [Example 135, 8-[(2,6-Difluorobenzyl)oxy]-2-methyl-N-{1-[2-(methylsulphonyl)ethyl]-1H-pyrazol-4-yl}imidazo[1,2-a]pyridine-3-carboxamide] |
| 1.0 µM | Cc1nn(S(C)(=O)=O)c(C)c1NC(=O)c1c(C)nc2c(OCc3c(F)cccc3F)cccn12 [Example 154, 8-[(2,6-Difluorobenzyl)oxy]-N-[3,5-dimethyl-1-(methylsulphonyl)-1H-pyrazol-4-yl]-2-methylimidazo[1,2-a]pyridine-3-carboxamide] |
| 1.0 µM | Cc1nc2c(OCc3c(F)cccc3F)cccn2c1C(=O)Nc1ccccc1CN [Example 111, N-[2-(Aminomethyl)phenyl]-8-[(2,6-difluorobenzyl)oxy]-2-methylimidazo[1,2-a]pyridine-3-carboxamide] |
| 3.0 µM | Cc1nc2c(OCc3c(F)cccc3F)cc(Cl)cn2c1C(=O)Nc1ccccc1CN [Example 104, N-[2-(Aminomethyl)phenyl]-6-chloro-8-[(2,6-difluorobenzyl)oxy]-2-methylimidazo[1,2-a]pyridine-3-carboxamide] |
| 1.0 µM | Cc1ccnc(NC(=O)c2c(C)nc3c(OCc4c(F)cccc4F)cccn23)n1 [Example 126, 8-[(2,6-Difluorobenzyl)oxy]-2-methyl-N-(4-methylpyrimidin-2-yl)imidazo[1,2-a]pyridine-3-carboxamide] |
| 1.0 µM | Cc1nc2c(OCc3c(F)cccc3F)cccn2c1C(=O)Nc1cnn(CCF)c1 [Example 140, 8-[(2,6-Difluorobenzyl)oxy]-N-[1-(2-fluoroethyl)-1H-pyrazol-4-yl]-2-methylimidazo[1,2-a]pyridine-3-carboxamide] |
| 3.0 µM | Cc1nc2c(OCc3c(F)cccc3F)cccn2c1C(=O)Nc1ccc(N2CCN(C)CC2)cc1 [Example 96] |
| 3.0 µM | Cc1nc2c(OCc3c(F)cccc3F)cccn2c1C(=O)Nc1cnn(CCN2CCCC2)c1 [Example 128, 8-[(2,6-difluorobenzyl)oxy]-2-methyl-N-{1-[2-(pyrrolidin-1-yl)ethyl]-1H-pyrazol-4-yl}imidazo [1,2-a]pyridine-3-carboxamide] |
| 1.0 µM | CCn1ccc(NC(=O)c2c(C)nc3c(OCc4c(F)cccc4F)cccn23)n1 [Example 121, 8-[(2,6-difluorobenzyl)oxy]-N-(1-ethyl-1H-pyrazol-3-yl)-2-methylimidazo[1,2-a] pyridine-3-carboxamide] |
| 1.0 µM | Cc1cc(OCc2c(F)cccc2F)c2nc(C)c(C(=O)Nc3cccc(S(C)(=O)=O)c3)n2c1 [Example 152, 8-[(2,6-Difluorobenzyl)oxy]-2,6-dimethyl-N-[3-(methylsulphonyl)phenyl]imidazo[1,2-a]pyridine-3-carboxamide] |
| 3.0 µM | Cc1nc2c(OCc3c(F)cccc3F)cccn2c1C(=O)Nc1nccs1 [Example 145, 8-[(2,6-difluorobenzyl)oxy]-2-methyl-N-(1,3-thiazol-2-yl) imidazo[1,2-a]pyridine-3-carboxamide] |
